Measured values as given in US10246425B2, “3,5-diamino-6-chloro-N-(N-(4-phenylbutyl)carbamimidoyl) pyrazine-2-carboxamide compounds” (Parion Sciences, Inc., priority 2012, dated 2019).
Structures can show the parent of a compound that is named as a salt.

tested on: human bronchial epithelial (HBE) cells; experiment: Airway surface liquid drug (ASL) clearance and metabolism by human airway epithelium; format: in vitro ADME; details: Table 4: HBE cells, 25 μL of 25 μM apical, 2 h, 37° C.; mean ± SD
Method: Assay 3. Airway Surface Liquid Drug (ASL) Clearance and Metabolism by Human Airway Epithelium
(§1) The disappearance of Compound II-d from the apical surface and airway epithelial metabolism were assessed in human bronchial epithelial (HBE) cells (Table 3). In these experiments 25 μL of a 25 μM solution of ENaC blocker was added to the apical surface of HBE cells grown at an air/liquid interface, and the drug concentration in the apical and basolateral compartment was measured over 2 h by UPLC.
as §1, with “Therefore, the compounds of Formula (A) have a longer half-life on mucosal surfaces compared to these know compounds as evidenced by the data shown in Table 4. The” for “The”, “HBE and compared to Comparative Example 1” for “human bronchial epithelial (HBE) cells”, “4).” for “3).”

| SMILES | % of Initial Drug Mass on Apical Side (Parent and metabolite, 2 h) [%] |
| --- | --- |
| CCCCCCN(CCCN[C@@H](Cc1ccc(CCCCNC(=N)NC(=O)c2nc(Cl)c(N)nc2N)cc1)C(N)=O)C[C@H](O)[C@@H](O)[C@H](O)[C@H](O)CO [XVII-d] | 76.6 ± 14.7 |
| N=C(NCCCCc1ccc(C[C@H](NCCCN(C[C@H](O)[C@@H](O)[C@H](O)[C@H](O)CO)C[C@H](O)[C@@H](O)[C@H](O)[C@H](O)CO)C(N)=O)cc1)NC(=O)c1nc(Cl)c(N)nc1N [XVI-ee] | 77.7 ± 12.2 |

same assay, conditions: Table 4: HBE cells, 25 μL of 25 μM apical, 2 h; mean ± SD

| SMILES | % of Apical Mass as Metabolites (2 h) | % of Initial Apical Mass on Basolateral Side (2 h) [%] | % on Basolateral Side as Metabolites (2 h) |
| --- | --- | --- | --- |
| CCCCCCN(CCCN[C@@H](Cc1ccc(CCCCNC(=N)NC(=O)c2nc(Cl)c(N)nc2N)c2ccccc12)C(N)=O)C[C@H](O)[C@@H](O)[C@H](O)[C@H](O)CO [VIII-d, 3,5-diamino-N—(N-(4-(4-((S)-3-amino-2-(3-(hexyl((2S,3R,4R,5R)-2,3,4,5,6-pentahydroxyhexyl)amino)propylamino)-3-oxopropyl)naphthalen-1-yl)butyl)carbamimidoyl)-6-chloropyrazine-2-carboxamide] | None | 2.0 ± 0.8 | None |
| N=C(NCCCCc1ccc(C[C@H](NCCCN(C[C@H](O)[C@@H](O)[C@H](O)[C@H](O)CO)C[C@H](O)[C@@H](O)[C@H](O)[C@H](O)CO)C(N)=O)c2ccccc12)NC(=O)c1nc(Cl)c(N)nc1N [VII-ee, 3,5-diamino-N—(N-(4-(4-((S)-3-amino-2-(3-(bis((2S,3R,4R,5R)-2,3,4,5,6-pentahydroxyhexyl)amino)propylamino)-3-oxopropyl)naphthalen-1-yl)butyl)carbamimidoyl)-6-chloropyrazine-2-carboxamide] | None | 6.4 ± 2.1 | None |
| CCCCCCN(CCCN[C@@H](Cc1ccc2cc(CCCCNC(=N)NC(=O)c3nc(Cl)c(N)nc3N)ccc2c1)C(N)=O)C[C@H](O)[C@@H](O)[C@H](O)[C@H](O)CO [IX-m, 3,5-diamino-N—(N-(4-(6-((S)-3-amino-2-(3-(hexyl((2S,3R,4R,5R)-2,3,4,5,6-pentahydroxyhexyl)amino)propylamino)-3-oxopropyl)naphthalen-2-yl)butyl)carbamimidoyl)-6-chloropyrazine-2-carboxamide] | None | 1.1 ± 0.2 | None |
| N=C(NCCCCc1ccc(C[C@H](NCCCN(C[C@H](O)[C@@H](O)[C@H](O)[C@H](O)CO)C[C@H](O)[C@@H](O)[C@H](O)[C@H](O)CO)C(N)=O)c2c1CCCC2)NC(=O)c1nc(Cl)c(N)nc1N [XI-cc, 3,5-diamino-N—(N-(4-(4-((S)-3-amino-2-(3-(bis((2S,3R,4R,5R)-2,3,4,5,6-pentahydroxyhexyl)amino)propylamino)-3-oxopropyl)-5,6,7,8-tetrahydronaphthalen-1-yl)butyl)carbamimidoyl)-6-chloropyrazine-2-carboxamide] | None | 1.8 ± 0.3 | None |
| N=C(NCCCCc1ccc2cc(CC[C@H](NCCCN(C[C@H](O)[C@@H](O)[C@H](O)[C@H](O)CO)C[C@H](O)[C@@H](O)[C@H](O)[C@H](O)CO)C(N)=O)ccc2c1)NC(=O)c1nc(Cl)c(N)nc1N [XIII-bb, 3,5-diamino-N—(N-(4-(6-((S)-4-amino-3-(3-(bis((2S,3R,4R,5R)-2,3,4,5,6-pentahydroxyhexyl)amino)propylamino)-4-oxobutyl)naphthalen-2-yl)butyl)carbamimidoyl)-6-chloropyrazine-2-carboxamide] | None | 4.2 ± 1.9 | None |
| CCCCCCN(CCCN[C@@H](Cc1ccc(CCCCNC(=N)NC(=O)c2nc(Cl)c(N)nc2N)c2c1CCCC2)C(N)=O)C[C@H](O)[C@@H](O)[C@H](O)[C@H](O)CO [XII-d, 3,5-diamino-N—(N-(4-(4-((S)-3-amino-2-(3-(hexyl((2S,3R,4R,5R)-2,3,4,5,6-pentahydroxyhexyl)amino)propylamino)-3-oxopropyl)-5,6,7,8-tetrahydronaphthalen-1-yl)butyl)carbamimidoyl)-6-chloropyrazine-2-carboxamide] | None | 9.6 ± 6.3 | None |
| CCCCCCN(CCCN[C@@H](Cc1ccc(CCCCNC(=N)NC(=O)c2nc(Cl)c(N)nc2N)cc1)C(N)=O)C[C@H](O)[C@@H](O)[C@H](O)[C@H](O)CO [XVII-d] | None | 1.9 ± 1.7 | None |
| N=C(NCCCCc1ccc(C[C@H](NCCCN(C[C@H](O)[C@@H](O)[C@H](O)[C@H](O)CO)C[C@H](O)[C@@H](O)[C@H](O)[C@H](O)CO)C(N)=O)cc1)NC(=O)c1nc(Cl)c(N)nc1N [XVI-ee] | None | 14.9 ± 1.4 | None |
| CCCCCCN(CCCN[C@@H](CCc1ccc(CCCCNC(=N)NC(=O)c2nc(Cl)c(N)nc2N)c2ccccc12)C(N)=O)C[C@H](O)[C@@H](O)[C@H](O)[C@H](O)CO [VI-d, 3,5-diamino-N—(N-(4-(4-((S)-4-amino-3-(3-(hexyl((2S,3R,4R,5R)-2,3,4,5,6-pentahydroxyhexyl)amino)propylamino)-4-oxobutyl)naphthalen-1-yl)butyl)carbamimidoyl)-6-chloropyrazine-2-carboxamide hydrochloride] | None | 1.2 ± 0.5 | None |
| Cl.N=C(NCCCCc1ccc(CC[C@H](NCCCN(C[C@H](O)[C@@H](O)[C@H](O)[C@H](O)CO)C[C@H](O)[C@@H](O)[C@H](O)[C@H](O)CO)C(N)=O)c2ccccc12)NC(=O)c1nc(Cl)c(N)nc1N [V-d, 3,5-diamino-N—(N-(4-(4-((S)-4-amino-3-(3-(bis((2S,3R,4R,5R)-2,3,4,5,6-pentahydroxyhexyl)amino)propylamino)-4-oxobutyl)naphthalen-1-yl)butyl)carbamimidoyl)-6-chloropyrazine-2-carboxamide hydrochloride] | none | 9.3 ± 0.86 | None |
| CCCCCCN(CCCN[C@@H](CCc1ccc(CCCCNC(=N)NC(=O)c2nc(Cl)c(N)nc2N)cc1)C(N)=O)C[C@H](O)[C@@H](O)[C@H](O)[C@H](O)CO [III-d, 3,5-diamino-N—(N-(4-(4-((S)-4-amino-3-(3-(hexyl((2S,3R,4R,5R)-2,3,4,5,6-pentahydroxyhexyl)amino)propylamino)-4-oxobutyl)phenyl)butyl)carbamimidoyl)-6-chloropyrazine-2-carboxamide] | none | 3.5 ± 2.2 | None |
| N=C(NCCCCc1ccc(CC[C@H](NCCCN(C[C@H](O)[C@@H](O)[C@H](O)[C@H](O)CO)C[C@H](O)[C@@H](O)[C@H](O)[C@H](O)CO)C(N)=O)c2c1CCCC2)NC(=O)c1nc(Cl)c(N)nc1N [XV-dd, 3,5-diamino-N—(N-(4-(4-((S)-4-amino-3-(3-(bis((2S,3R,4R,5R)-2,3,4,5,6-pentahydroxyhexyl)amino)propylamino)-4-oxobutyl)-5,6,7,8-tetrahydronaphthalen-1-yl)butyl)carbamimidoyl)-6-chloropyrazine-2-carboxamide] | None | 1.81 ± 1.6 | None |
